Results reported in article PMC10763724 (Molecular cancer therapeutics, 2019).
Like-named read-outs stand apart in the source and are kept apart here.

Columns and labels:
[1] = tested on: UACC 903 and 1205 Lu cells; assay: ROS assay; assay type: cell-based, human; details: 5 μmol/L, 24 hours
[2] = tested on: UACC 903 and 1205 Lu cells; assay: Lipid peroxidation; assay type: cell-based, human; details: 5 μmol/L, 24 hours
ALDH3A1 [3] = biological target: T1, ALDH3A1 (Homo sapiens, UniProt P30838); assay: ALDH3A1 isoform-specific enzyme assay; assay type: biochemical; details: 15 minutes preincubation
T1 sequence (P30838 1-453): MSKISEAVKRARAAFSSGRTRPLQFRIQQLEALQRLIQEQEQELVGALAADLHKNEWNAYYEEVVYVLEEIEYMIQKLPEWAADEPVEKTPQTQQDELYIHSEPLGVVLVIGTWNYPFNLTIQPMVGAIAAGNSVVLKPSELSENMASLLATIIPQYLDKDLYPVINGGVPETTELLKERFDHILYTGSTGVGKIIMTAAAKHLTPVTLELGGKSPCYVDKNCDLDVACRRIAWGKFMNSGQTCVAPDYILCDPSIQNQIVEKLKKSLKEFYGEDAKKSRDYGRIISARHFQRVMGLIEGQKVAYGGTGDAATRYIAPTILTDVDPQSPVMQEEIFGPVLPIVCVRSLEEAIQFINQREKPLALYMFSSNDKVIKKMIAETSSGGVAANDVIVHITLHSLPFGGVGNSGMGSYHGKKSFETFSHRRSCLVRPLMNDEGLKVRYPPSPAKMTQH

ALDH1A1 [4] = biological target: T2, ALDH1A1 (Homo sapiens, UniProt P00352); assay: ALDH1A1 isoform-specific enzyme assay; assay type: biochemical; details: 15 minutes preincubation
T2 sequence (P00352 1-501): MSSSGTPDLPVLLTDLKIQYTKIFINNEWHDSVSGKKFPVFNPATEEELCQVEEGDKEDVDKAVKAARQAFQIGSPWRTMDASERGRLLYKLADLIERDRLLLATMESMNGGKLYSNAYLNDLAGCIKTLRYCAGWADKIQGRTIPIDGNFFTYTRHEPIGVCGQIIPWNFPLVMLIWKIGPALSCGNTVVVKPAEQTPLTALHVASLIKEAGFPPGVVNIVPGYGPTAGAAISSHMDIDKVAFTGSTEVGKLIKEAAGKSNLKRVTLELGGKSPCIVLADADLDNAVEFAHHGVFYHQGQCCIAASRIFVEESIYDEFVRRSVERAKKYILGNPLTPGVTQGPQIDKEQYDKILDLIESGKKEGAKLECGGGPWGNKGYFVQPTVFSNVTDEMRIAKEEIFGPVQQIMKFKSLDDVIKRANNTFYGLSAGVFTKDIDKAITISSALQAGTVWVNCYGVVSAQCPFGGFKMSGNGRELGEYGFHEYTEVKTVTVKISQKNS

[5] = tested on: total cellular ALDH activity, 1205 Lu cell lysates; assay: Total cellular ALDH activity assay, 1205 Lu cell lysates; assay type: biochemical, human; details: 1 μmol/L, 15 minutes
[6] = tested on: total cellular ALDH activity, UACC 903 cell lysates; assay: Total cellular ALDH activity assay, UACC 903 cell lysates; assay type: biochemical, human; details: 1 μmol/L, 15 minutes
UACC 903 cells = assay: MTS cell viability assay, UACC 903; assay type: cell-based, human; details: 100 μmol/L, 72 hours
ALDH2 [7] = details: read-out: IC50 for ALDH2; cited from earlier work
ALDH3A1 [8] = details: cited from earlier work
ALDH1A1 [9] = details: cited from earlier work
HNSCC xenograft models = details: 24 mg/kg/day, implantable osmotic mini pumps; cited from earlier work
ALDH2 [10] = biological target: T3, ALDH2 (Homo sapiens, UniProt P05091); assay: ALDH2 isoform-specific enzyme assay; assay type: biochemical; details: read-out: IC50s ALDH2; acetaldehyde substrate, 15 minutes preincubation
T3 sequence (P05091 18-517): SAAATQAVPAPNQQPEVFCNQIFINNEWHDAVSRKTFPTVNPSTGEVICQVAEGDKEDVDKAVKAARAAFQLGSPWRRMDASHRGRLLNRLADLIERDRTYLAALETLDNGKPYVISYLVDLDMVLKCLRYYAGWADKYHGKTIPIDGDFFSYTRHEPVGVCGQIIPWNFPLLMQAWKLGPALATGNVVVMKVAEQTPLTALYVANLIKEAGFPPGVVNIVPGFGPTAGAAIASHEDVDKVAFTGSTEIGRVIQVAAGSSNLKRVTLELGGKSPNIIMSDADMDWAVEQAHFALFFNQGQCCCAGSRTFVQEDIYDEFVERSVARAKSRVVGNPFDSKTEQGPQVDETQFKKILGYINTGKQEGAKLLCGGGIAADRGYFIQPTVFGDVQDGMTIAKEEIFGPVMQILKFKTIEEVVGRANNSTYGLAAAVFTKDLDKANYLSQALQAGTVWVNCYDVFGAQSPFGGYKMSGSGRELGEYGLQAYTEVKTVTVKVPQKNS

CCOC(=O)CSc1nc2c(sc3ccccc32)c(=O)n1CCCN1CCCC1 [CM037]
ROS levels [1]: significantly increased ROS levels
lipid peroxidation and toxic aldehyde accumulation [2]: significantly increased lipid peroxidation and toxic aldehyde accumulation

O=C1Nc2ccccc2C1=O [Isatin]
IC50 (ALDH3A1 [3]; IC50s ALDH3A1, 4-nitrobenzaldehyde substrate): 5.05 µM
IC50 (ALDH1A1 [4]; IC50s ALDH1A1, propionaldehyde substrate): 15.6 µM
reduction of total cellular ALDH activity, 1205 Lu [5]: ineffective
reduction of total cellular ALDH activity, UACC 903 [6]: ineffective

CCN(CC)c1ccc(C=O)cc1 [DEAB]
IC50 (ALDH3A1 [3]; read-out: IC50s ALDH3A1, 4-nitrobenzaldehyde substrate): 15.1 µM
ROS levels [1]: significantly increased ROS levels
lipid peroxidation and toxic aldehyde accumulation [2]: significantly increased lipid peroxidation and toxic aldehyde accumulation
reduction of UACC 903 cell survival (UACC 903 cells): 30%

CN(C)CCC(=O)c1ccc(Br)cc1 [Aldi-6]
IC50 (ALDH2 [7]): 0.8 µM
IC50 (ALDH3A1 [8]; read-out: IC50 for ALDH3A1): 1 µM
IC50 (ALDH1A1 [9]; read-out: IC50 for ALDH1A1): 0.6 µM
tumor reduction in HNSCC xenograft models (HNSCC xenograft models): 60%

CSC(=O)C#CC(C)(C)N(C)C [DIMATE, 4-dimethylamino-4-methyl–pent-2-ynthioic acid-S-methylester]
IC50 (ALDH3A1 [8]; read-out: IC50 toward ALDH3A1): 5 µM
IC50 (ALDH1A1 [9]; read-out: IC50 toward ALDH1A1): 5 µM

Cc1nc2ccccc2n1S(=O)(=O)c1ccc(F)cc1 [CB7]
IC50 (ALDH1A1 [4]; read-out: IC50s ALDH1A1, propionaldehyde substrate): 139 µM
IC50 (ALDH2 [10]): 144 µM
